Assay results published in patent US11517568B2, “Compounds and methods for treating nematode infections” (The Governing Council of The University of Toronto, priority 2018, dated 2022).
Where two headings read alike, the source gives them in different places.

What was measured:
L3 animals = experiment: Abnormal locomotory behaviour of L3 animals on solid agar (extended SAR); type: in vivo, Caenorhabditis elegans; conditions: for pest or weed control at 3.75 µM / pest or weed control at 15 µM / pest or weed control at 60 µM: Caenorhabditis elegans
Procedure: 20 animals were scored after either 1, 6 or 24 hours of exposure to drug (as indicated) per replicate. […] Data are reported as the mean % of animals with abnormal phenotype over 4 independent replicates.

[1] = test system: wild type fourth-stage C. elegans larvae (L4s); experiment: Locomotory defects (coiled and/or paralysis) in wild type fourth-stage C. elegans larvae on solid substrate; type: in vivo, Caenorhabditis elegans; conditions: for Activity (%): percent of animals that show coiled and/or paralysis: 60 μM, after 60 min on solid substrate, L4 C. elegans
Procedure: A preliminary first round of SAR analyses using analogs of exemplary compound Ia was performed and the analogs' ability to induce locomotory defects in wild type fourth-stage C. elegans larvae (L4s) was tested.
If phenotype is observed, a dose-response analysis is performed.

[2] = 3.75 uM, 1 h exposure, L3, mean of 4 replicates, read-out: % any phene 1 h (conc.) 3.75
[3] = 3.75 uM, 6 h exposure, L3, mean of 4 replicates, read-out: % any phene 6 h (conc.) 3.75
[4] = 3.75 uM, 24 h exposure, L3, mean of 4 replicates, read-out: % any phene 24 h (conc.) 3.75
[5] = 15 uM, 1 h exposure, L3, mean of 4 replicates, read-out: % any phene 1 h (conc.) 15
[6] = 15 uM, 6 h exposure, L3, mean of 4 replicates, read-out: % any phene 6 h (conc.) 15
[7] = 15 uM, 24 h exposure, L3, mean of 4 replicates, read-out: % any phene 24 h (conc.) 15
[8] = 60 uM, 1 h exposure, L3, mean of 4 replicates, read-out: % any phene 1 h (conc.) 60
[9] = 60 uM, 6 h exposure, L3, mean of 4 replicates, read-out: % any phene 6 h (conc.) 60
[10] = 60 uM, 24 h exposure, L3, mean of 4 replicates, read-out: % any phene 24 h (conc.) 60
[11] = 3.75 uM, 1 h exposure, L3, mean of 4 replicates
[12] = 3.75 uM, 6 h exposure, L3, mean of 4 replicates
[13] = 3.75 uM, 24 h exposure, L3, mean of 4 replicates
[14] = 15 uM, 1 h exposure, L3, mean of 4 replicates
[15] = 15 uM, 6 h exposure, L3, mean of 4 replicates
[16] = 15 uM, 24 h exposure, L3, mean of 4 replicates
[17] = 60 uM, 1 h exposure, L3, mean of 4 replicates
[18] = 60 uM, 6 h exposure, L3, mean of 4 replicates
[19] = 60 uM, 24 h exposure, L3, mean of 4 replicates
[20] = 1 h, read-out: % any phene 1 h (conc.) 3.75
[21] = 1 h, read-out: % any phene 1 h (conc.) 15
[22] = 1 h, read-out: % any phene 1 h (conc.) 60
[23] = 6 h, read-out: % any phene 6 h (conc.) 3.75
[24] = 6 h, read-out: % any phene 6 h (conc.) 15
[25] = 6 h, read-out: % any phene 6 h (conc.) 60
[26] = 24 h, read-out: % any phene 24 h (conc.) 3.75
[27] = 24 h, read-out: % any phene 24 h (conc.) 15
[28] = 24 h, read-out: % any phene 24 h (conc.) 60

| Structure (SMILES) | pest or weed control at 3.75 µM (L3 animals; [2]) [%] | pest or weed control at 3.75 µM (L3 animals; [3]) [%] | pest or weed control at 3.75 µM (L3 animals; [4]) [%] | pest or weed control at 15 µM (L3 animals; [5]) [%] | pest or weed control at 15 µM (L3 animals; [6]) [%] | pest or weed control at 15 µM (L3 animals; [7]) [%] | pest or weed control at 60 µM (L3 animals; [8]) [%] | pest or weed control at 60 µM (L3 animals; [9]) [%] | pest or weed control at 60 µM (L3 animals; [10]) [%] | Activity (%): percent of animals that show coiled and/or paralysis [1] | other results |
| --- | --- | --- | --- | --- | --- | --- | --- | --- | --- | --- | --- |
| Clc1ccc(N2CCN(CC3CC4C=CC3C4)CC2)cc1 (centres unmarked) [Ix] | 89.2 | 100 | 66.7 | 100 | 100 | 100 | 100 | 100 | 100 | – | – |
| O=[N+]([O-])c1ccc(N2CCN(Cc3ccccc3)CC2)cc1 [Im] | – | – | – | – | – | – | – | – | – | 0.00% | % any phene 1 h (conc.) 3.75 (L3 animals; [11]): 0.0%; % any phene 6 h (conc.) 3.75 (L3 animals; [12]): 0.0%; % any phene 24 h (conc.) 3.75 (L3 animals; [13]): 0.0%; % any phene 1 h (conc.) 15 (L3 animals; [14]): 7.5%; % any phene 6 h (conc.) 15 (L3 animals; [15]): 3.3%; % any phene 24 h (conc.) 15 (L3 animals; [16]): 0.0%; % any phene 1 h (conc.) 60 (L3 animals; [17]): 44.2%; % any phene 6 h (conc.) 60 (L3 animals; [18]): 30.8%; % any phene 24 h (conc.) 60 (L3 animals; [19]): 0.0% |
| Fc1ccc(N2CCN(CC3CC=CCC3)CC2)cc1 (centres unmarked) [Iy] | 22.5 | 0 | 0 | 77.5 | 35 | 0 | 100 | 99.2 | 58.3 | – | – |
| CC1CCC(N2CCN(c3ccc(F)cc3)CC2)CC1 (centres unmarked) [Ibb] | – | 5 | 0 | – | 75.8 | 13.3 | 100 | 100 | 100 | – | – |
| c1ccc(N2CCN(CC3CCCCC3)CC2)cc1 [Ii] | – | – | – | – | – | – | – | – | – | 19% +/− 8.1 | % any phene 1 h (conc.) 3.75 (L3 animals; [11]): 16.2%; % any phene 6 h (conc.) 3.75 (L3 animals; [12]): 0.0%; % any phene 24 h (conc.) 3.75 (L3 animals; [13]): 0.0%; % any phene 1 h (conc.) 15 (L3 animals; [14]): 39.2%; % any phene 6 h (conc.) 15 (L3 animals; [15]): 0.8%; % any phene 24 h (conc.) 15 (L3 animals; [16]): 0.0%; % any phene 1 h (conc.) 60 (L3 animals; [17]): 84.2%; % any phene 6 h (conc.) 60 (L3 animals; [18]): 44.2%; % any phene 24 h (conc.) 60 (L3 animals; [19]): 20.5% |
| CC1CCC(N2CCN(c3ccc([N+](=O)[O-])cc3)CC2)CC1 (centres unmarked) [Ib] | – | – | – | – | – | – | – | – | – | 87% +/− 3.7 | pest or weed control at 3.75 µM (L3 animals; [20]): 3.3%; pest or weed control at 15 µM (L3 animals; [21]): 97.5%; pest or weed control at 60 µM (L3 animals; [22]): 100%; pest or weed control at 3.75 µM (L3 animals; [23]): 0%; pest or weed control at 15 µM (L3 animals; [24]): 93.3%; pest or weed control at 60 µM (L3 animals; [25]): 100%; pest or weed control at 3.75 µM (L3 animals; [26]): 0%; pest or weed control at 15 µM (L3 animals; [27]): 73.3%; pest or weed control at 60 µM (L3 animals; [28]): 100% |
| CCC1CCC(N2CCN(c3ccc([N+](=O)[O-])cc3)CC2)CC1 (centres unmarked) [Ic] | 29.2 | 8.3 | 0 | 95.9 | 80.8 | 89.2 | 100 | 100 | 100 | 71% +/− 2.1 | – |
| Clc1ccc(N2CCN(C3CCCCCC3)CC2)cc1 [Idd] | – | 86.7 | 34.2 | 100 | 100 | 98.3 | 100 | 97.5 | 97.5 | – | – |
| N#Cc1ccc(N2CCN(CC3CCCC3)CC2)cc1 [Ip] | – | – | – | – | – | – | – | – | – | 41% +/− 7.4 | % any phene 1 h (conc.) 3.75 (L3 animals; [11]): 0.8%; % any phene 6 h (conc.) 3.75 (L3 animals; [12]): 0.0%; % any phene 24 h (conc.) 3.75 (L3 animals; [13]): 0.0%; % any phene 1 h (conc.) 15 (L3 animals; [14]): 29.2%; % any phene 6 h (conc.) 15 (L3 animals; [15]): 10.0%; % any phene 24 h (conc.) 15 (L3 animals; [16]): 0.0%; % any phene 1 h (conc.) 60 (L3 animals; [17]): 91.3%; % any phene 6 h (conc.) 60 (L3 animals; [18]): 42.5%; % any phene 24 h (conc.) 60 (L3 animals; [19]): 62.5% |
| C1CNCCN1 [Piperazine, reference compound] | – | – | – | – | – | – | – | – | – | 0.00% | – |
| Fc1ccc(N2CCN(C3CCCCCC3)CC2)cc1 [Iaa] | 45 | 6.7 | 0 | 89.2 | 27.5 | 0 | 100 | 97.5 | 69.2 | – | – |
| O=[N+]([O-])c1ccc(N2CCN(C3CCCCCC3)CC2)cc1 [Ir] | 43.3 | 9.2 | 0 | – | 88.3 | 30 | 100 | 100 | 100 | – | – |
| O=[N+]([O-])c1ccc(N2CCN(CC3CC3)CC2)cc1 [Iq] | – | – | – | – | – | – | – | – | – | 6% +/− 3.2 | % any phene 1 h (conc.) 3.75 (L3 animals; [11]): 0.0%; % any phene 6 h (conc.) 3.75 (L3 animals; [12]): 5.0%; % any phene 24 h (conc.) 3.75 (L3 animals; [13]): 0.0%; % any phene 1 h (conc.) 15 (L3 animals; [14]): 4.2%; % any phene 6 h (conc.) 15 (L3 animals; [15]): 29.2%; % any phene 24 h (conc.) 15 (L3 animals; [16]): 0.0%; % any phene 1 h (conc.) 60 (L3 animals; [17]): 32.5%; % any phene 6 h (conc.) 60 (L3 animals; [18]): 36.7%; % any phene 24 h (conc.) 60 (L3 animals; [19]): 4.2% |
| O=[N+]([O-])c1ccc(N2CCN(C3CCCCCCC3)CC2)cc1 [Is] | 3.3 | 0 | 0 | – | 15 | 0 | 100 | 62.5 | 13.3 | – | – |
| N#Cc1ccc(N2CCN(CC3CCCCC3)CC2)cc1 [Ik] | – | – | – | – | – | – | – | – | – | 61% +/− 5.0 | % any phene 1 h (conc.) 3.75 (L3 animals; [11]): 8.3%; % any phene 6 h (conc.) 3.75 (L3 animals; [12]): 15.0%; % any phene 24 h (conc.) 3.75 (L3 animals; [13]): 0.0%; % any phene 1 h (conc.) 15 (L3 animals; [14]): 45.8%; % any phene 6 h (conc.) 15 (L3 animals; [15]): 37.5%; % any phene 24 h (conc.) 15 (L3 animals; [16]): 23.3%; % any phene 1 h (conc.) 60 (L3 animals; [17]): 91.7%; % any phene 6 h (conc.) 60 (L3 animals; [18]): 98.3%; % any phene 24 h (conc.) 60 (L3 animals; [19]): 100.0% |
| Fc1ccc(N2CCN(CC3CCCCC3)CC2)cc1 [Ig] | – | – | – | – | – | – | – | – | – | – | pest or weed control at 3.75 µM (L3 animals; [20]): 21.7%; pest or weed control at 15 µM (L3 animals; [21]): 44.2%; pest or weed control at 60 µM (L3 animals; [22]): 95%; pest or weed control at 3.75 µM (L3 animals; [23]): 0.8%; pest or weed control at 15 µM (L3 animals; [24]): 9.2%; pest or weed control at 60 µM (L3 animals; [25]): 79.2%; pest or weed control at 3.75 µM (L3 animals; [26]): 0%; pest or weed control at 15 µM (L3 animals; [27]): 4.2%; pest or weed control at 60 µM (L3 animals; [28]): 66.7% |
| c1ccc(N2CCN(C3CCCCCC3)CC2)cc1 [Iff] | 24.2 | 6.7 | 0 | 98.3 | 28.3 | 0 | 100 | 51.7 | 0 | – | – |
| c1ccc(N2CCN(CC3CCCC3)CC2)cc1 [Ihh] | 4.2 | 0 | 0 | 70 | 1.7 | 0 | 100 | 53.3 | 5 | – | – |
| c1ccc(N2CCN(C3CCCCCCC3)CC2)cc1 [Icc] | 46.7 | 0 | 0 | 93.3 | 0.8 | 0 | 100 | 33.3 | 0 | – | – |
| O=[N+]([O-])c1ccc(N2CCN(CC3CCCC3)CC2)cc1 [If] | – | – | – | – | – | – | – | – | – | 98% +/− 1.9 | rank among analogs for inducing locomotory defects ([1]; SAR comparison with compound Ia analogs): most potent analog to date |
| Clc1ccc(N2CCN(CC3CCCCC3)CC2)cc1 [Ih] | – | – | – | – | – | – | – | – | – | – | pest or weed control at 3.75 µM (L3 animals; [20]): 0%; pest or weed control at 15 µM (L3 animals; [21]): 27.5%; pest or weed control at 60 µM (L3 animals; [22]): 55.7%; pest or weed control at 3.75 µM (L3 animals; [23]): 0%; pest or weed control at 15 µM (L3 animals; [24]): 0%; pest or weed control at 60 µM (L3 animals; [25]): 5.8%; pest or weed control at 3.75 µM (L3 animals; [26]): 0%; pest or weed control at 15 µM (L3 animals; [27]): 0%; pest or weed control at 60 µM (L3 animals; [28]): 10.8% |
| CC1CCC(N2CCN(c3ccccc3)CC2)CC1 (centres unmarked) [Iz] | 60.8 | 0 | 0 | 96.7 | 6.7 | 0 | 99.2 | 85 | 14.2 | – | – |
